Data from US12251370B2, “Small molecule inhibitors of the BfrB:Bfd interaction” (BOARD OF SUPERVISORS OF LOUISIANA STATE UNIVERSITY AND …, priority 2018, dated 2025).
Where “and” joins values, the source holds several entries; their conditions need not be identical. Equal entries are not always repeated. Entries after “also recorded” stand apart in the source; their conditions may differ.

Experiments:
Type in all cases: cell-based, Pseudomonas aeruginosa
[1] = system: iron mobilization from BfrB in P. aeruginosa; assay: Imaging of iron stored in BfrB and analysis of total iron levels; settings: analog 125 μM, M63 + 4 μM Fe
Protocol: The resultant cell suspensions (5 mL) were mixed with a small volume of a 10 mM working solution of analog 16 in DMSO to give a 125 μM solution and 2% DMSO, or simply 2% DMSO (control). The conical tubes were covered with a sterile air permeable membrane and the cultures incubated at 35° C. and 120 rpm for 6, 9, 12, 15, 18, 21 and 24 h. Prior to separating the cells by centrifugation (4,000 rpm, 15 min), a 100 μL aliquot was withdrawn from each conical tube and serially diluted for plating and enumerating viable cells. The separated pellet was washed with 5 mL of PBS and frozen at −20° C. for subsequent analysis. The corresponding cell free supernatants were used for iron analysis in the spent media, as described below. […]
To determine the total iron levels of cells treated with analog 16 or DMSO only (control), 5 mL cultures were grown in M63 media supplemented with 4 μM iron, as described above, and analyzed at 12, 15, 21, 24, and 28 h. […] Cell pellets were washed twice with 10 mL of PBS and the total levels of cellular iron were measured using a published protocol.^18, 48 In brief, cell pellets were mixed with 500 μL of freshly prepared digestion reagent (1:1 v/v 1.2 N HCl and 4.5% w/v KMnO4 in water), thoroughly mixed by vortexing, and incubated at 65° C. for 4 h. […]

[2] = system: ΔbfrB P. aeruginosa cells; assay: Growth response of bfrB deletion mutant cells to analog; settings: M63 + 4 μM Fe; 15 h post-inoculation; viable cells vs untreated control
Protocol: (§1) To this end, wild type and ΔbfrB cells were cultured in M63 media supplemented with 4 μM Fe, in the presence of different concentrations of analog. […] Since BfrB is not essential, it is likely that the cell can compensate for the absence of the iron storage protein. […] The sudden onset of toxicity observed in the second phase, which is not observed with the wild type cells, is probably related to off-target effects that expose a fitness vulnerability caused by the absence of BfrB. Consequently, it is possible to conclude that the dose-dependent growth defect elicited by 11 or 16 on wild type P. aeruginosa cells is largely a consequence of the interaction between the small molecule inhibitors and BfrB in the bacterial cell. This issue was investigated in additional detail (see below) by probing the phenotypic and biochemical response of wild type cells treated with the small molecule inhibitors.

[3] = system: P. aeruginosa clinical isolate MR3B; assay: Effect of analog on ciprofloxacin potency, clinical isolate MR3B
Protocol: The combined treatment was carried out similarly, ensuring that the final concentration of DMSO was 2%.

P. aeruginosa cells = assay: microbe, parasite or virus in culture; settings: 13 h
Protocol: These experiments were carried out in 96 well plates, as described above. […] The 500-fold diluted solution was centrifuged and the cell-free supernatant was analyzed for pyoverdin by fluorescence spectrophotometry in a Synergy H1 microplate reader (BioTek) with excitation at 400 nm and emission at λmax=455 nm. Full emission spectra (430-550 nm) were also recorded using a Perkin Elmer LS50B spectrophotometer.
As indicated above, genetic manipulations were used in prior work to delete the bfd gene (Δbfd) and evaluate the consequences of inhibiting the BfrB-Bfd interaction in P. aeruginosa.^18 Preventing the BfrB-Bfd interaction in the Δbfd mutant cells dysregulates iron homeostasis by causing the irreversible accumulation of iron in BfrB and the concomitant depletion of free iron levels in the cytosol. […] To analyze the levels of secreted pyoverdin, cells were pelleted and the supernatant was diluted 500-fold prior to measuring the fluorescence intensity at 455 nm (FIG. 7B).

[4] = system: wild type P. aeruginosa cells; assay: Growth response of wild type cells to analog (viable cell count); settings: M63 + 4 μM Fe; 15 h post-inoculation; viable cells vs untreated control
Protocol: as §1

O=C1NC(=O)c2c(NCCCc3cccc(O)c3)cccc21 [Analog 16, 4-((3-(3-Hydroxyphenyl)propyl)amino)isoindoline-1,3-dione]
iron mobilization from BfrB (native PAGE stained with Ferene S) [1]: significant inhibition of iron mobilization from BfrB; also recorded: much slower (inhibited) mobilization of iron from BfrB
viable cells, fold fewer than untreated control ([1]; all time points): approximately 2.5 fold
growth response of ΔbfrB mutant cells [2]: biphasic growth response
survival, fold lower relative to ciprofloxacin alone ([3]; analog 16 + ciprofloxacin): approximately 20 fold
survival ([3]; analog 16 + ciprofloxacin 0.2 μg/mL): 0.5%
survival ([3]; analog 16 only, 125 μM): ca. 50%
viability at 125 µM (P. aeruginosa cells; Pseudomonas aeruginosa, read-out: viable cells relative to untreated control): ~30%
pyoverdin secreted, fluorescence normalized to viable cells (CFU/mL), relative to untreated control (P. aeruginosa cells; analog 125 μM, emission 455 nm): ~4.5 fold and ~4 fold
growth response of wild type cells [4]: monophasic dose-dependent growth defect
